This is an account of results in patent publication US20250073177A1, “LIPID NANOPARTICLES FOR OLIGONUCLEOTIDE DELIVERY” (ZIPHIUS NV, priority 2021, published 2025).

For data set [1], the system named is Female SWISS mice. Nature of the data set: In vivo bioluminescent imaging of LNP-formulated luciferase saRNA expression. Particulars: 1 μg luciferase saRNA in LNP. The procedure: (§1) Female SWISS mice (6 weeks old) were purchased from Janvier Laboratories (Paris, France) and kept in individually ventilated cages with access to food and water ad libitum. Mice were anesthetized with isoflurane (Zoetis, Louvain-La-Neuve, Belgium) (5% for induction and 2% for maintenance) and intramuscularly injected with a total of 1 μg in 100 μL Tris-HCL (50 μL per leg) LNP-formulated luciferase saRNA (for each group n=7). The expression of the luciferase induced bioluminescence was measured via non-invasive In vivo bioluminescent imaging (In vivo Imaging System (IVIS) Lumina III, Perkin Elmer, Waltham, Massachusetts, USA), 10 minutes after subcutaneous injection of 200 μL of D-luciferin (GoldBio, Saint Louis, Missouri, USA, #LUCK-1G) were measured in day 0 (before injection), day 1, day 3, day 5, day 7, day 10, day 15 and day 20.

Data set [2] can be described thus: LNP particle size, polydispersity index and charge by Zeta Sizer. It counts as physicochemical. Particulars: LNP lipid:DOPE:Cholesterol:DMG-PEG 35:20:43.5:1.5, N/P about 40/1, firefly luciferase saRNA. The procedure:
Cationic lipids, DOPE, Cholesterol and DMG-PEG lipid were solubilized in ethanol or DMSO at a molar ratio of 35:20:43.5:1.5 and a concentration of 100:25:20:25 μg/μL for C12-200 or 170:25:20:25 μg/μL for the comparator lipids. Lipid nanoparticles (LNP) were prepared by targeting an N/P ratio of approximately 40/1 with saRNA. Briefly, the firefly luciferase saRNA of approximately 9659 nucleotides was diluted to 0.5 mg/mL in 5 mM citrate buffer, pH 4.5. Microfluidic mixer (Ignite from Precision Nanosystems, California, USA) was used to mix the lipid solution with the saRNA aqueous solution at a ratio of about 1:3 (vol/vol) with total flow rates above 10 ml/min. The ethanol was then removed, and the external buffer replaced with 10 mM TRIS-HCL, PH 7.4, by dialysis. Finally, the lipid nanoparticles were filtered through a 0.2 μm pore sterile filter. Lipid nanoparticle particle size was 50-150 nm diameter and polydispersity index (PI) of 0.1-0.4 as determined by Zeta Sizer (Malvern Panalytical, UK). The charge of the formulation was also measured by Zeta Sizer and ranged between 20 to −20 mV.

Data set [3] in a line: Body weight of mice after injection of LNP-formulated luciferase saRNA. Particulars: 1 μg luciferase saRNA in LNP. It counts as in vivo. The protocol: as §1
See Tables 4 and FIG. 1 for the results showing higher expression of the saRNA compared to prior art compounds at day 15 onwards when administered in LNPs comprising compounds of the invention. Table 5 supports good tolerability of the compounds of the invention.

The nature of data set [4]: saRNA encapsulation in LNP, Quant-IT RiboGreen assay. The note with it: LNP with firefly luciferase saRNA, RiboGreen with or without Triton X-100. It counts as physicochemical. The protocol:
The saRNA loading in LNP formulations was quantified using a Quant-IT RiboGreen assay (Thermo Fisher Scientific, Waltham, Massachusetts, USA) as previously described. 14 samples were diluted tenfold in 1×Tris HCL-EDTA (TE) buffer (10 mM Tris-HCL, 1 mM EDTA, pH 7.5) with or without 2% (v/v) Triton X-100 (Sigma-Aldrich, Saint Louis, Missouri, USA). Standard solutions were also prepared in 1×TE with or without 2% (v/v) Triton X-100 to account for any variation in fluorescence. The assay was performed according to the manufacturer's protocol. Samples were loaded on a black 96-well plate and analysed for fluorescence on a microplate reader (Tecan Infinite® 200 PRO) at an excitation of 485 nm and emission at 528 nm. Encapsulation efficiency was calculated between 80-100%. See Table 3 below for the results obtained.

[5] abbreviates: Day 0 (before injection), intramuscular.

Turning to `CCCCCCC(CCCC)C(=O)NCCN1CCN(CCN(CCCCOC(=O)C(CCCC)CCCCCC)CCCCOC(=O)C(CCCC)CCCCCC)CC1` (stereo not shown) [Compound 8-27, ((2-(4-(2-(2-butyloctanamido)ethyl)piperazin-1-yl)ethyl)azanediyl)bis(butane-4,1-diyl) bis(2-butyloctanoate)], the “Bioluminescence expression of LNPs” value in data set [1] (setting [5]) was 8.55E+04; in data set [1] (Day 1, intramuscular), 1.40E+08; in data set [1] (Day 3, intramuscular) it was 9.90E+08; in data set [1] (Day 5, intramuscular) it was 7.71E+08; in data set [1] (Day 7, intramuscular) it was 2.35E+08; in data set [1] (Day 10, intramuscular) it was 6.86E+06. The “Bioluminescence expression of LNPs” value in data set [1] (Day 15, intramuscular) is 7.44E+05; in data set [1] (Day 20, intramuscular), 8.29E+05. Besides, the “Polydispersity Index (PI)” value in data set [2] is reported as 0.16. This molecule also gave a Z-average in data set [2] of 85.72 nm. In data set [2], this molecule gave a Zetapotential of −12.65 mV. Also, the Weight in data set [3] (setting [5]) is listed as 27.07 g; in data set [3] (Day 1, intramuscular), 26.01 g; in data set [3] (Day 3, intramuscular) it was 27.57 g; in data set [3] (Day 5, intramuscular), 28.86 g; in data set [3] (Day 7, intramuscular), 28.40 g; in data set [3] (Day 10, intramuscular), 28.67 g. Besides, the Weight in data set [3] (Day 15, intramuscular) is 29.44 g; in data set [3] (Day 20, intramuscular), 30.57 g. Moreover, the Encapsulation in data set [4] is recorded as 98.64%.

`CCCCCCCCCCC(O)CN(CCN1CCN(CCN(CC(O)CCCCCCCCCC)CC(O)CCCCCCCCCC)CC1)CCN(CC(O)CCCCCCCCCC)CC(O)CCCCCCCCCC` (stereo not shown) [Compound C12-200, 1,1′-((2-(4-(2-((2-(bis (2-hydroxydodecyl)amino)ethyl) (2-hydroxydodecyl)amino)ethyl)piperazin-1-yl)ethyl)azanediyl)bis (dodecan-2-ol), reference compound]: the “Polydispersity Index (PI)” value in data set [2] is 0.10. The Z-average in data set [2] is 81.42 nm. The Zetapotential in data set [2] came to 2.78 mV. Moreover, the Weight turned out to be 28.61 g in data set [3] (setting [5]); 27.17 g in data set [3] (Day 1, intramuscular); 28.62 g in data set [3] (Day 3, intramuscular); 28.98 g in data set [3] (Day 5, intramuscular); 28.97 g in data set [3] (Day 7, intramuscular); 29.23 g in data set [3] (Day 10, intramuscular). Besides, the Weight in data set [3] (Day 15, intramuscular) came out at 30.16 g; in data set [3] (Day 20, intramuscular) it was 31.23 g. In data set [4], this molecule gave an Encapsulation of 100.49%.

Turning to `CCCCCCCCCCCCCCOC(=O)CCN(CCC(=O)OCCCCCCCCCCCCCC)CCN1CCN(CCN(CCC(=O)OCCCCCCCCCCCCCC)CCC(=O)OCCCCCCCCCCCCCC)CC1` [Comparator 1, reference compound], the “Polydispersity Index (PI)” value in data set [2] is 0.16. Moreover, the Z-average in data set [2] worked out at 70.96 nm. In data set [2], this molecule gave a Zetapotential of 9.07 mV. Also, the Weight in data set [3] (setting [5]) was found to be 26.56 g; in data set [3] (Day 1, intramuscular), 25.99 g; in data set [3] (Day 3, intramuscular) it was 27.21 g; in data set [3] (Day 5, intramuscular), 27.59 g; in data set [3] (Day 7, intramuscular), 27.09 g; in data set [3] (Day 10, intramuscular), 27.17 g. The Weight stood at 29.43 g in data set [3] (Day 15, intramuscular) and 30.11 g in data set [3] (Day 20, intramuscular). For the same molecule, the Encapsulation in data set [4] turned out to be 99.03%.

`CCCCCCC(CCCC)C(=O)OCCCCN(CCCCOC(=O)C(CCCC)CCCCCC)CCN1CCN(CCOC(=O)C(CCCC)CCCCCC)CC1` (stereo not shown) [Compound 8-41, ((2-(4-(2-((2-butyloctanoyl)oxy)ethyl)piperazin-1-yl)ethyl)azanediyl)bis(butane-4,1-diyl) bis(2-butyloctanoate)]: the “Bioluminescence expression of LNPs” value in data set [1] (setting [5]) worked out at 5.33E+04; in data set [1] (Day 1, intramuscular) it was 5.42E+07; in data set [1] (Day 3, intramuscular) it was 7.43E+08; in data set [1] (Day 5, intramuscular) it was 6.54E+08; in data set [1] (Day 7, intramuscular), 4.67E+08; in data set [1] (Day 10, intramuscular) it was 9.17E+06. Also, the “Bioluminescence expression of LNPs” value came out at 1.88E+06 in data set [1] (Day 15, intramuscular) and 1.88E+06 in data set [1] (Day 20, intramuscular). Further, the “Polydispersity Index (PI)” value in data set [2] worked out at 0.23. The molecule further registered a Z-average in data set [2] of 81.44 nm. In data set [2], this molecule returned a Zetapotential of −20.01 mV. In addition, the Weight in data set [3] (setting [5]) is given as 28.03 g; in data set [3] (Day 1, intramuscular) it was 27.31 g; in data set [3] (Day 3, intramuscular), 28.49 g; in data set [3] (Day 5, intramuscular), 29.04 g; in data set [3] (Day 7, intramuscular) it was 28.69 g; in data set [3] (Day 10, intramuscular), 29.24 g. Besides, the Weight in data set [3] (Day 15, intramuscular) was 30.24 g; in data set [3] (Day 20, intramuscular), 31.19 g. In data set [4], this molecule returned an Encapsulation of 99.04%.
